Reference: patent US9435792B2, “Hemolysis reagent composition for hemoglobin A1C quantitative analysis using enzymatic method” (I-Sens, Inc., priority 2012, dated 2016)

Assay: Evaluation of solubility of surfactant
Format: physicochemical
Conditions: surfactant dissolved in distilled water to a concentration of 0.75 mg/mL
Procedure: In order to use a surfactant, it is essential that the solubility of a sample itself be excellent. First of all, if the sample is not dissolved it cannot be used at all, and thus the solubility of a surfactant was evaluated as a prerequisite.

SMILES: CCCCCCCCCCCCCC(=O)NCCC[N+](C)(C)CCCS(=O)(=O)[O-] [Comp. Ex. 1]
- Solubility: ∘ (dissolved at a concentration of 0.75 mg/mL)
